The values that follow come from ChEMBL document CHEMBL1138448, “Synthesis, biological evaluation, and molecular docking of Ugi products containing a zinc-chelating moiety as novel inhibitors of histone deacetylases” (J Med Chem, 2009).

In assay [1] the test system is SH-SY5Y. The experiment in a line: Cytotoxicity against human SH-SY5Y cells assessed as cell viability at 10 uM after 48 hrs by MTT assay relative to control. In kind it is functional. The note with it: for viability at 10 µM: Homo sapiens, SH-SY5Y, 48 h, read-out: Activity.
Assay [2] has as its system SH-SY5Y. The experiment in a line: Cytotoxicity against human SH-SY5Y cells assessed as cell viability after 48 hrs by MTT assay. It counts as functional, cell-based.
The target in assay [3] is Histone deacetylase. The experiment in a line: Inhibition of HDAC in human SHSY5Y cells by fluorimetric cellular activity assay. The note with it: sh-sy5y. In kind it is cell-based.
Assay [4] deals with SH-SY5Y. In words: Cell cycle arrest in human SH-SY5Y cells assessed as accumulation at G2/M phase at 3 uM after 16 hrs by flow cytometry. It counts as functional.
Assay [5] concerns the target Histone deacetylase (Homo sapiens) (UniProt Q13547+O15379+Q9UBN7+Q92769+Q9UQL6+Q8WUI4+Q9BY41+Q96DB2+P56524+Q9UKV0+Q969S8). The note with it: SH-SY5Y, at 10 µM.
Description: Inhibition of HDAC in human SHSY5Y cells at 10 uM by fluorimetric cellular activity assay

pIC50: −log10 of the molar value. Calls of active or inactive are those of the source. The calls are words filed in the database; no cut-off is given here.

Turning to `O=C(CCCCCC(=O)N(CCc1ccccc1)C(Cc1ccccc1)C(=O)NCCc1ccccc1)NO` (stereo not given), the viability at 10 µM in assay [1] turned out to be 30.2%. Further, in assay [2], the pIC50 was 5.54.

With `O=C(CCCCCCC(=O)N(Cc1ccccc1)C(Cc1ccccc1)C(=O)NCCc1ccccc1)NO` (stereo not given), the viability at 10 µM in assay [1] was 53.1%.

Regarding `O=C(CCCCCC(=O)N(Cc1ccccc1)C(Cc1ccccc1)C(=O)NCCc1ccccc1)NO` (stereo not given), the viability at 10 µM in assay [1] was found to be 30.8%. Further, the pIC50 in assay [2] was 5.12.

On to `O=C(CCCCCC(=O)N(CCc1ccccc1)C(Cc1ccccc1)C(=O)NCc1ccccc1)NO` (stereo not given), for which the viability at 10 µM in assay [1] stood at 34.9%. Besides, in assay [2], the pIC50 was 5.12.

Consider `CCCCCCC(C(=O)NC1CCCCC1)N(CCc1ccccc1)C(=O)CCCCCC(=O)NO` (stereo not given), for which the viability at 10 µM in assay [1] was found to be 35%. Besides, the pIC50 in assay [2] was 5.54.

Turning to `CN(C(=O)CCCCCCC(=O)NO)C(Cc1ccccc1)C(=O)NCCc1ccccc1` (stereo not given), the viability at 10 µM in assay [1] was 94.4%.

On to `O=C(CCCCCCC(=O)N(Cc1ccccc1)C(Cc1ccc(-c2ccccc2)cc1)C(=O)NCCc1ccccc1)NO` (stereo not given), for which the viability at 10 µM in assay [1] was 22.2%. Moreover, the negative-log IC50 (pIC50) in assay [2] was 5.38. The same molecule yielded an IC50 in assay [3] of 4.4 µM. For the same molecule, the Activity in assay [4] is given as 11.3%. Further, the inhibition result in assay [5] is “Active”.

For `CCCCCCCC(C(=O)NCCc1ccccc1)N(Cc1ccccc1)C(=O)CCCCCCC(=O)NO` (stereo not given), the viability at 10 µM in assay [1] was determined as 53%.

On to `Nc1ccccc1NC(=O)CCCCCC(=O)N(Cc1ccccc1)C(Cc1ccccc1)C(=O)NC1CCCCC1` (stereo not given), for which the viability at 10 µM in assay [1] was found to be 91.6%.

With `Nc1ccccc1NC(=O)CCCCCCC(=O)N(Cc1ccccc1)C(Cc1ccc(-c2ccccc2)cc1)C(=O)NCCc1ccccc1` (stereo not given), the viability at 10 µM in assay [1] is 74%.

Regarding `O=C(CCCCCC(=O)N(Cc1ccccc1)C(Cc1ccccc1)C(=O)NC1CCCCC1)NO` (stereo not given), the viability at 10 µM in assay [1] turned out to be 27.4%. Further, in assay [2], the pIC50 was 5.60. Moreover, the half-maximal inhibitory concentration (IC50) in assay [3] was 1.2 µM. Further, the Activity in assay [4] is on record as 34.3%. In assay [5], the inhibition result was “Active”.

With `O=C(CCCCCCC(=O)Nc1ccccc1)NO` [VORINOSTAT], the Activity was found to be 33.8% in assay [1] and 34% in assay [4].
